In patent publication US12281122B1, “PI3K inhibitors” (Cogent Biosciences, Inc., priority 2023, dated 2025) one finds IC50 data, which are given here for 19 molecules.

In test [1] the test system is SKBR3 (PI3Kα-Wild Type) cell line. Briefly: HTRF phospho-AKT(S473) cell assay in SKBR3 cells. The test is classed as cell-based, human. Conditions: Homo sapiens, SK-BR-3; HTRF phospho-AKT(S473), SKBR3 (PI3Kα-Wild Type) cells, 2 hours compound incubation, PDGF-BB stimulated. A digest of the protocol:
(§1)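 T47D (PI3Kα-H1047R; RPMI, 10% FBS, insulin) and SKBR3 (wild-type PI3Kα; McCoy's 5A, 10% FBS) cells treated 2 h at 37 °C with 12-point 1:3 dilutions, top 5 μM and 10 μM respectively, ≤0.5% DMSO. SKBR3 stimulated with 70 ng/ml PDGF-BB for the last 15 min; lysate pAKT(S473) by HTRF, IC50 from curves.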

Test [2] concerns T47D (PI3Kα-H1047R) cell line. Briefly: HTRF phospho-AKT(S473) cell assay in T47D cells. The test is classed as cell-based, human. Conditions: Homo sapiens; HTRF phospho-AKT(S473), T47D (PI3Kα-H1047R) cells, 2 hours compound incubation. A digest of the protocol: as §1

As to `Cc1cc([C@@H](C)Nc2ccc(Cl)nc2C(=O)NS(C)(=O)=O)c2nc(N3Cc4cnc(C)cc4C3)n(C)c(=O)c2c1` [Compound 516, (R)-6-chloro-3-((1-(3,6-dimethyl-2-(6-methyl-1,3-dihydro-2H-pyrrolo[3,4-c]pyridin-2-yl)-4-oxo-3,4-dihydroquinazolin-8-yl)ethyl)amino)-N-(methylsulfonyl) picolinamide], the IC50 in test [1] was 1 to 5 µM; in test [2], < 0.25 µM.

In the case of `Cc1cc([C@@H](C)Nc2ccc(Cl)nc2C(=O)NS(C)(=O)=O)c2nc(N3Cc4cncnc4C3)n(C)c(=O)c2c1` [Compound 517, (R)-6-chloro-3-((1-(2-(5,7-dihydro-6H-pyrrolo [3,4-d]pyrimidin-6-yl)-3,6-dimethyl-4-oxo-3,4-dihydroquinazolin-8-yl)ethyl)amino)-N-(methylsulfonyl) picolinamide], the 50% inhibitory concentration (IC50) is 1 to 5 µM in test [1] and 0.25 to 0.5 µM in test [2].

For `Cc1cc([C@@H](C)Nc2ccc(Cl)nc2C(=O)NS(C)(=O)=O)c2nc(N3C[C@@H]4[C@H](C3)[C@H]4c3cnc(C)o3)n(C)c(=O)c2c1` [Compound 518, 6-chloro-3-(((R)-1-(3,6-dimethyl-2-((1R,5S,6R)-6-(2-methyloxazol-5-yl)-3-azabicyclo[3.1.0]hexan-3-yl)-4-oxo-3,4-dihydroquinazolin-8-yl)ethyl)amino)-N-(methylsulfonyl) picolinamide], the concentration for half-maximal inhibition (IC50) in test [1] was 1 to 5 µM; in test [2] it was < 0.25 µM.

As to `COc1cc([C@H]2[C@@H]3CN(c4nc5c([C@@H](C)Nc6ccc(Cl)nc6C(=O)NS(C)(=O)=O)cc(C)cc5c(=O)n4C)C[C@@H]32)n(C)n1` [Compound 519, 6-chloro-3-(((R)-1-(2-((1R,5S,6R)-6-(3-methoxy-1-methyl-1H-pyrazol-5-yl)-3-azabicyclo[3.1.0]hexan-3-yl)-3,6-dimethyl-4-oxo-3,4-dihydroquinazolin-8-yl)ethyl)amino)-N-(methylsulfonyl) picolinamide], the IC50 in test [1] is 1 to 5 µM; in test [2], < 0.25 µM.

In the case of `Cc1cc([C@@H](C)Nc2ccc(Cl)nc2C(=O)NS(C)(=O)=O)c2nc(N3C[C@@H]4[C@H](C3)[C@H]4c3cc4n(n3)CCO4)n(C)c(=O)c2c1` [Compound 520, 6-chloro-3-(((R)-1-(2-((1R,5S,6R)-6-(2,3-dihydropyrazolo[5,1-b]oxazol-6-yl)-3-azabicyclo[3.1.0]hexan-3-yl)-3,6-dimethyl-4-oxo-3,4-dihydroquinazolin-8-yl)ethyl)amino)-N-(methylsulfonyl) picolinamide], the 50% inhibitory concentration (IC50) was 1 to 5 µM in test [1] and < 0.25 µM in test [2].

In the case of `Cc1cc([C@@H](C)Nc2ccc(Cl)nc2C(=O)NS(C)(=O)=O)c2nc(N3CCC(c4cnc(C)o4)CC3)n(C)c(=O)c2c1` [Compound 521, (R)-6-chloro-3-((1-(3,6-dimethyl-2-(4-(2-methyloxazol-5-yl)piperidin-1-yl)-4-oxo-3,4-dihydroquinazolin-8-yl)ethyl)amino)-N-(methylsulfonyl) picolinamide], the results for the IC50 in test [1] and in test [2] were 1 to 5 µM and < 0.25 µM, respectively.

For the molecule `Cc1cc([C@@H](C)Nc2ccc(Cl)nc2C(=O)NS(C)(=O)=O)c2nc(N3C[C@@H]4[C@H](C3)[C@H]4c3cnc(C(F)F)nc3)n(C)c(=O)c2c1` [Compound 522, 6-chloro-3-(((R)-1-(2-((1R,5S,6S)-6-(2-(difluoromethyl)pyrimidin-5-yl)-3-azabicyclo[3.1.0]hexan-3-yl)-3,6-dimethyl-4-oxo-3,4-dihydroquinazolin-8-yl)ethyl)amino)-N-(methylsulfonyl) picolinamide], the IC50 was 1 to 5 µM in test [1] and < 0.25 µM in test [2].

Turning to `Cc1cc([C@@H](C)Nc2ccc(Cl)nc2C(=O)NS(C)(=O)=O)c2nc(N3CCC(c4nc(C)nn4C)CC3)n(C)c(=O)c2c1` [Compound 523, (R)-6-chloro-3-((1-(2-(4-(1,3-dimethyl-1H-1,2,4-triazol-5-yl)piperidin-1-yl)-3,6-dimethyl-4-oxo-3,4-dihydroquinazolin-8-yl)ethyl)amino)-N-(methylsulfonyl) picolinamide], the half-inhibitory concentration (IC50) is ≥ 5 µM in test [1] and 0.25 to 0.5 µM in test [2].

Take `Cc1cc([C@@H](C)Nc2ccc(Cl)nc2C(=O)NS(C)(=O)=O)c2nc(N3C[C@@H]4[C@H](C3)[C@H]4c3cc(C4CC4)[nH]n3)n(C)c(=O)c2c1` [Compound 524, 6-chloro-3-(((R)-1-(2-((1R,5S,6R)-6-(5-cyclopropyl-1H-pyrazol-3-yl)-3-azabicyclo[3.1.0]hexan-3-yl)-3,6-dimethyl-4-oxo-3,4-dihydroquinazolin-8-yl)ethyl)amino)-N-(methylsulfonyl) picolinamide]: the IC50 in test [1] is 1 to 5 µM; in test [2], < 0.25 µM.

Regarding `Cc1cc([C@@H](C)Nc2ccc(Cl)nc2C(=O)NS(C)(=O)=O)c2nc(N3CCC(c4ncc(C)nc4C)CC3)n(C)c(=O)c2c1` [Compound 525, (R)-6-chloro-3-((1-(2-(4-(3,5-dimethylpyrazin-2-yl)piperidin-1-yl)-3,6-dimethyl-4-oxo-3,4-dihydroquinazolin-8-yl)ethyl)amino)-N-(methylsulfonyl) picolinamide], the half-maximal inhibitory concentration (IC50) was ≥ 5 µM in test [1] and < 0.25 µM in test [2].

Take `CCn1c(N2CCC(n3cc(C)cn3)CC2)nc2c([C@@H](C)Nc3ccc(Cl)nc3C(=O)NS(C)(=O)=O)cc(C)cc2c1=O` [Compound 526, (R)-6-chloro-3-((1-(3-ethyl-6-methyl-2-(4-(4-methyl-1H-pyrazol-1-yl)piperidin-1-yl)-4-oxo-3,4-dihydroquinazolin-8-yl)ethyl)amino)-N-(methylsulfonyl) picolinamide]: the half-inhibitory concentration (IC50) in test [1] was 1 to 5 µM; in test [2], < 0.25 µM.

For the molecule `Cc1cc([C@@H](C)Nc2ccc(Cl)nc2C(=O)NS(C)(=O)=O)c2nc(N3CC[C@H](Oc4ccc(C)nn4)C3)n(C)c(=O)c2c1` [Compound 527, 6-chloro-3-(((R)-1-(3,6-dimethyl-2-((S)-3-((6-methylpyridazin-3-yl)oxy)pyrrolidin-1-yl)-4-oxo-3,4-dihydroquinazolin-8-yl)ethyl)amino)-N-(methylsulfonyl) picolinamide], the IC50 in test [1] is 1 to 5 µM; in test [2], < 0.25 µM.

With `Cc1cc([C@@H](C)Nc2ccc(Cl)nc2C(=O)NS(C)(=O)=O)c2nc(N3C[C@@H]4[C@H](C3)[C@H]4c3cn(C(C)C)nn3)n(C)c(=O)c2c1` [Compound 528, 6-chloro-3-(((R)-1-(2-((1R,5S,6R)-6-(1-isopropyl-1H-1,2,3-triazol-4-yl)-3-azabicyclo[3.1.0]hexan-3-yl)-3,6-dimethyl-4-oxo-3,4-dihydroquinazolin-8-yl)ethyl)amino)-N-(methylsulfonyl) picolinamide], the half-maximal inhibitory concentration (IC50) in test [1] was 1 to 5 µM; in test [2], < 0.25 µM.

Regarding `Cc1cc([C@@H](C)Nc2ccc(Cl)nc2C(=O)NS(C)(=O)=O)c2nc(N3CCN(c4cncc(C)n4)CC3)n(C)c(=O)c2c1` [Compound 529, (R)-6-chloro-3-((1-(3,6-dimethyl-2-(4-(6-methylpyrazin-2-yl)piperazin-1-yl)-4-oxo-3,4-dihydroquinazolin-8-yl)ethyl)amino)-N-(methylsulfonyl) picolinamide], the IC50 in test [1] is 1 to 5 µM; in test [2] it was < 0.25 µM.

`Cc1cc([C@@H](C)Nc2ccc(Cl)nc2C(=O)NS(C)(=O)=O)c2nc(N3CCN(c4ncc(Cl)cn4)CC3)n(C)c(=O)c2c1` [Compound 530, (R)-6-chloro-3-((1-(2-(4-(5-chloropyrimidin-2-yl)piperazin-1-yl)-3,6-dimethyl-4-oxo-3,4-dihydroquinazolin-8-yl)ethyl)amino)-N-(methylsulfonyl) picolinamide]: the concentration for half-maximal inhibition (IC50) was ≥ 5 µM in test [1] and 0.25 to 0.5 µM in test [2].

Regarding `Cc1cc([C@@H](C)Nc2ccc(Cl)nc2C(=O)NS(C)(=O)=O)c2nc(N3CCN(c4ncc(C#N)cn4)CC3)n(C)c(=O)c2c1` [Compound 531, (R)-6-chloro-3-((1-(2-(4-(5-cyanopyrimidin-2-yl)piperazin-1-yl)-3,6-dimethyl-4-oxo-3,4-dihydroquinazolin-8-yl)ethyl)amino)-N-(methylsulfonyl) picolinamide], the half-maximal inhibitory concentration (IC50) was 1 to 5 µM in test [1] and < 0.25 µM in test [2].

Turning to `Cc1cnc(N2CCN(c3nc4c([C@@H](C)Nc5ccc(Cl)nc5C(=O)NS(C)(=O)=O)cc(C)cc4c(=O)n3C)CC2)nc1` [Compound 532, (R)-6-chloro-3-((1-(3,6-dimethyl-2-(4-(5-methylpyrimidin-2-yl)piperazin-1-yl)-4-oxo-3,4-dihydroquinazolin-8-yl)ethyl)amino)-N-(methylsulfonyl) picolinamide], the concentration for half-maximal inhibition (IC50) was ≥ 5 µM in test [1] and 0.25 to 0.5 µM in test [2].

With `Cc1cc([C@@H](C)Nc2ccc(Cl)nc2C(=O)NS(C)(=O)=O)c2nc(N3CCN(c4ncc(F)cn4)CC3)n(C)c(=O)c2c1` [Compound 533, (R)-6-chloro-3-((1-(2-(4-(5-fluoropyrimidin-2-yl)piperazin-1-yl)-3,6-dimethyl-4-oxo-3,4-dihydroquinazolin-8-yl)ethyl)amino)-N-(methylsulfonyl) picolinamide], the half-maximal inhibitory concentration (IC50) was 1 to 5 µM in test [1] and < 0.25 µM in test [2].

As to `Cc1cc([C@@H](C)Nc2ccc(Cl)nc2C(=O)NS(C)(=O)=O)c2nc(N3Cc4nccnc4C3)n(C)c(=O)c2c1` [Compound 534, (R)-6-chloro-3-((1-(2-(5,7-dihydro-6H-pyrrolo[3,4-b]pyrazin-6-yl)-3,6-dimethyl-4-oxo-3,4-dihydroquinazolin-8-yl)ethyl)amino)-N-(methylsulfonyl) picolinamide], the half-inhibitory concentration (IC50) is 1 to 5 µM in test [1] and < 0.25 µM in test [2].
